Experimental data: patent publication US20230114627A1, “COMPOSITION COMPRISING A METAL ASCORBO-CAMPHORATE COMPOUND AND METHOD FOR PREVENTION AND/OR TREATMENT OF PAPILLOMAVIRUS INFECTIONS” (MGB PHARMA Inc., priority 2020, published 2023)

Test system: HEC-1A cells
Assay: Cytokine/chemokine MultiPlex assay (BioPlex 200) of HEC-1A secretion
Assay type: cell-based
Conditions: 24 hours
From the text: In the model as provided in this example, a method to assess the pro-inflammatory character of antivirals intended to be applied as mucosal topicals was used.
Epithelial cells are capable of secreting a set of molecules called cytokines and chemokines, which are responsible for the recruitment and activation of immune cells at the site of secretion. This process can be deleterious in the context of sexual transmission of HIV-1 because the recruited cells are the preferred targets of the virus. […] A microbicide candidate should therefore not promote inflammation by activating the production of this type of molecule by the cells directly in contact with the substance (epithelial cells). These secretions can be deleterious in the context of sexual transmission of HIV-1 or HPV and other papillomaviruses because the recruited cells are the preferred targets of the virus. A microbicide candidate must thus not promote inflammation by activating the production of these types of molecules by the cells in contact with the substance (epithelial cells).
After 24 hours of incubation, a panel of 48 inflammation-related cytokines/chemokines is assayed by MultiPlex (BioPlex 200 BioRad) in the basal medium.

Which results are given for zinc tetra-ascorbo-camphorate [C14]?
CTACK (0 μM): 4.29 pg/mL; Eotaxin (0 μM): 0.87 pg/mL; FGF (0 μM): 1.515 pg/mL; G-CSF (0 μM): 1.885 pg/mL; GM-CSF (0 μM): 7.005 pg/mL; GROα (0 μM): 2.75 pg/mL; HGF (0 μM): 3.63 pg/mL; IFN-α2 (0 μM): 4.08 pg/mL; IFN-γ (0 μM): 94.255 pg/mL; IL-1rα (0 μM): 18.105 pg/mL; IL-1α (0 μM): 0 pg/mL; IL-1β (0 μM): 0.335 pg/mL; IL-2 (0 μM): 0.25 pg/mL; IL-2rα (0 μM): 4.06 pg/mL; IL-3 (0 μM): 6.785 pg/mL; IL-4 (0 μM): 0.16 pg/mL; IL-5 (0 μM): 0 pg/mL; IL-6 (0 μM): 0.435 pg/mL; IL-7 (0 μM): 3.95 pg/mL; IL-8 (0 μM): 971.01 pg/mL; IL-9 (0 μM): 25.865 pg/mL; IL-10 (0 μM): 3.085 pg/mL; IL-12 (0 μM): 98.495 pg/mL; IL-12ρ40 (0 μM): 0 pg/mL; IL-13 (0 μM): 3.34 pg/mL; IL-15 (0 μM): 0 pg/mL; IL-16 (0 μM): 0 pg/mL; IL-17 (0 μM): 0 pg/mL; IL-18 (0 μM): 0 pg/mL; IP-10 (0 μM): 6.19 pg/mL; LIF (0 μM): 0 pg/mL; M-CSF (0 μM): 3.725 pg/mL; MCP-1 (0 μM): 7.26 pg/mL; MCP-3 (0 μM): 0 pg/mL; MIF (0 μM): 6.92 pg/mL; MIG (0 μM): 3.09 pg/mL; MIP-1α (0 μM): 2.25 pg/mL; MIP-1β (0 μM): 1.32 pg/mL; PDGF-β (0 μM): 1.235 pg/mL; RANTES (0 μM): 12.86 pg/mL; SCF (0 μM): 0 pg/mL; SCGF-β (0 μM): 242.36 pg/mL; SDF-1α (0 μM): 13.03 pg/mL; TNF-α (0 μM): 4.9 pg/mL; TNF-β (0 μM): 0 pg/mL; TRAIL (0 μM): 3.43 pg/mL; VEGF (0 μM): 1384.84 pg/mL; β-NGF (0 μM): 1.04 pg/mL; effect on production of the 48 cytokines/chemokines (1 μM to 500 μM): did not affect the production; CTACK (5 μM): 4.29 pg/mL; Eotaxin (5 μM): 0 pg/mL; FGF (5 μM): 1.415 pg/mL; G-CSF (5 μM): 1.99 pg/mL; GM-CSF (5 μM): 6.24 pg/mL; GROα (5 μM): 0 pg/mL; HGF (5 μM): 5.43 pg/mL; IFN-α2 (5 μM): 3.58 pg/mL; IFN-γ (5 μM): 95.43 pg/mL; IL-1rα (5 μM): 10.215 pg/mL; IL-1α (5 μM): 0 pg/mL; IL-1β (5 μM): 0.31 pg/mL; IL-2 (5 μM): 0.105 pg/mL; IL-2rα (5 μM): 4.29 pg/mL; IL-3 (5 μM): 6.785 pg/mL; IL-4 (5 μM): 0.05 pg/mL; IL-5 (5 μM): 0 pg/mL; IL-6 (5 μM): 0.34 pg/mL; IL-7 (5 μM): 3.38 pg/mL; IL-8 (5 μM): 941.46 pg/mL; IL-9 (5 μM): 25.535 pg/mL; IL-10 (5 μM): 3.395 pg/mL; IL-12 (5 μM): 98.855 pg/mL; IL-12ρ40 (5 μM): 0 pg/mL; IL-13 (5 μM): 4.8 pg/mL; IL-15 (5 μM): 0 pg/mL; IL-16 (5 μM): 0 pg/mL; IL-17 (5 μM): 0 pg/mL; IL-18 (5 μM): 0 pg/mL; IP-10 (5 μM): 4.855 pg/mL; LIF (5 μM): 0 pg/mL; M-CSF (5 μM): 4.7 pg/mL; MCP-1 (5 μM): 5.105 pg/mL; MCP-3 (5 μM): 0 pg/mL; MIF (5 μM): 2.735 pg/mL; MIG (5 μM): 3.76 pg/mL; MIP-1α (5 μM): 2.105 pg/mL; MIP-1β (5 μM): 1.09 pg/mL; PDGF-β (5 μM): 0.865 pg/mL; RANTES (5 μM): 12.27 pg/mL; SCF (5 μM): 0 pg/mL; SCGF-β (5 μM): 258.645 pg/mL; SDF-1α (5 μM): 13.03 pg/mL; TNF-α (5 μM): 5.5 pg/mL; TNF-β (5 μM): 0 pg/mL; TRAIL (5 μM): 4.21 pg/mL; VEGF (5 μM): 1240.71 pg/mL; β-NGF (5 μM): 0.95 pg/mL; CTACK (10 μM): 3.45 pg/mL; Eotaxin (10 μM): 0 pg/mL; FGF (10 μM): 1.53 pg/mL; G-CSF (10 μM): 1.99 pg/mL; GM-CSF (10 μM): 6.65 pg/mL; GROα (10 μM): 0 pg/mL; HGF (10 μM): 5.43 pg/mL; IFN-α2 (10 μM): 4.08 pg/mL; IFN-γ (10 μM): 76.375 pg/mL; IL-1rα (10 μM): 14.085 pg/mL; IL-1α (10 μM): 0 pg/mL; IL-1β (10 μM): 0.33 pg/mL; IL-2 (10 μM): 0.305 pg/mL; IL-2rα (10 μM): 3.825 pg/mL; IL-3 (10 μM): 6.14 pg/mL; IL-4 (10 μM): 0.235 pg/mL; IL-5 (10 μM): 0 pg/mL; IL-6 (10 μM): 0.575 pg/mL; IL-7 (10 μM): 3.665 pg/mL; IL-8 (10 μM): 1115.205 pg/mL; IL-9 (10 μM): 26.025 pg/mL; IL-10 (10 μM): 3.17 pg/mL; IL-12 (10 μM): 103.16 pg/mL
